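96-well plates; 48 h exposure; 5 concentrations. Endpoints by linear interpolation between flanking doses. Not reached: highest tested concentration assigned. The concentration for 50% growth inhibition is given as GI50. TGI is the concentration that stops growth completely.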
Tests used:
Test in all cases: inhibition of tumour cell growth, NCI panel, 48 h; in the data active means GI50 below about 0.43 µM; inactive means the rest
PC-3 prostate = tested on: PC-3 prostate
CAKI-1 renal = tested on: CAKI-1 renal
MDA-MB-231 breast = tested on: MDA-MB-231 breast
SF-295 CNS = tested on: SF-295 CNS
NCI-H226 lung = tested on: NCI-H226 lung
U251 CNS = tested on: U251 CNS
RPMI-8226 leukemia = tested on: RPMI-8226 leukemia
SK-MEL-5 melanoma = tested on: SK-MEL-5 melanoma
HS 578T breast = tested on: HS 578T breast
MALME-3M melanoma = tested on: MALME-3M melanoma
TK-10 renal = tested on: TK-10 renal
COLO 205 colon = tested on: COLO 205 colon
HCT-116 colon = tested on: HCT-116 colon
SF-268 CNS = tested on: SF-268 CNS
LOX IMVI melanoma = tested on: LOX IMVI melanoma
NCI-H522 lung = tested on: NCI-H522 lung
CCRF-CEM leukemia = tested on: CCRF-CEM leukemia
SK-OV-3 ovarian = tested on: SK-OV-3 ovarian
BT-549 breast = tested on: BT-549 breast
HOP-62 NSCLC = tested on: HOP-62 NSCLC
NCI/ADR-RES ovarian = tested on: NCI/ADR-RES ovarian
DU-145 prostate = tested on: DU-145 prostate
NCI-H23 lung = tested on: NCI-H23 lung
HOP-92 NSCLC = tested on: HOP-92 NSCLC
MCF7 breast = tested on: MCF7 breast
OVCAR-8 ovarian = tested on: OVCAR-8 ovarian
T-47D breast = tested on: T-47D breast
SK-MEL-28 melanoma = tested on: SK-MEL-28 melanoma
HT29 colon = tested on: HT29 colon
ACHN renal = tested on: ACHN renal
MDA-MB-435 = tested on: MDA-MB-435
OVCAR-4 ovarian = tested on: OVCAR-4 ovarian
OVCAR-5 ovarian = tested on: OVCAR-5 ovarian
KM12 colon = tested on: KM12 colon
A498 renal = tested on: A498 renal
M14 melanoma = tested on: M14 melanoma
SNB-19 CNS = tested on: SNB-19 CNS
SR leukemia = tested on: SR leukemia
OVCAR-3 ovarian = tested on: OVCAR-3 ovarian
SW-620 colon = tested on: SW-620 colon
HCT-15 colon = tested on: HCT-15 colon
UACC-62 melanoma = tested on: UACC-62 melanoma
EKVX NSCLC = tested on: EKVX NSCLC
HCC-2998 colon = tested on: HCC-2998 colon
SNB-75 CNS = tested on: SNB-75 CNS
A549 NSCLC = tested on: A549 NSCLC
K-562 leukemia = tested on: K-562 leukemia
SF-539 CNS = tested on: SF-539 CNS
SN12C renal = tested on: SN12C renal
IGROV1 ovarian = tested on: IGROV1 ovarian
HL-60(TB) leukemia = tested on: HL-60(TB) leukemia
786-0 renal = tested on: 786-0 renal
MOLT-4 leukemia = tested on: MOLT-4 leukemia
SK-MEL-2 melanoma = tested on: SK-MEL-2 melanoma
UACC-257 melanoma = tested on: UACC-257 melanoma
UO-31 renal = tested on: UO-31 renal
NCI-H460 lung = tested on: NCI-H460 lung

CC[C@H](C)[C@H](NC(=O)C12C3C4C1C1C2C3C41NC(C)=O)C(=O)N(C)[C@H](C[C@@H](OC(C)=O)c1nc(C(=O)N[C@@H](Cc2ccccc2)C[C@H](C)C(=O)OC)cs1)C(C)C (stereo partly drawn)
active: GI50 (RPMI-8226 leukemia) 73.5 nM | GI50 (SK-MEL-5 melanoma) 152 nM | GI50 (COLO 205 colon) 346 nM | GI50 (HCT-116 colon) 354 nM | GI50 (LOX IMVI melanoma) 231 nM | GI50 (NCI-H522 lung) 63.7 nM | GI50 (CCRF-CEM leukemia) 361 nM | GI50 (BT-549 breast) 146 nM | GI50 (MCF7 breast) 50.3 nM | GI50 (HT29 colon) 360 nM | GI50 (MDA-MB-435) 42.7 nM | GI50 (M14 melanoma) 259 nM | GI50 (SR leukemia) 33.1 nM | GI50 (OVCAR-3 ovarian) 56.5 nM | GI50 (SW-620 colon) 206 nM | GI50 (UACC-62 melanoma) 112 nM | GI50 (HCC-2998 colon) 279 nM | GI50 (SNB-75 CNS) 109 nM | GI50 (K-562 leukemia) 118 nM | GI50 (SF-539 CNS) 349 nM | GI50 (HL-60(TB) leukemia) 67.9 nM | GI50 (SK-MEL-2 melanoma) 162 nM | GI50 (NCI-H460 lung) 402 nM
1710 nM: TGI (COLO 205 colon)
> 14300 nM: TGI (PC-3 prostate) | TGI (CAKI-1 renal) | TGI (MDA-MB-231 breast) | TGI (SF-295 CNS) | TGI (NCI-H226 lung) | TGI (U251 CNS) | TGI (HS 578T breast) | TGI (MALME-3M melanoma) | TGI (TK-10 renal) | TGI (HCT-116 colon) | TGI (SF-268 CNS) | TGI (LOX IMVI melanoma) | TGI (CCRF-CEM leukemia) | TGI (SK-OV-3 ovarian) | TGI (HOP-62 NSCLC) | TGI (NCI/ADR-RES ovarian) | TGI (NCI-H23 lung) | TGI (HOP-92 NSCLC) | TGI (MCF7 breast) | TGI (OVCAR-8 ovarian) | TGI (T-47D breast) | TGI (SK-MEL-28 melanoma) | TGI (ACHN renal) | TGI (OVCAR-4 ovarian) | TGI (OVCAR-5 ovarian) | TGI (KM12 colon) | TGI (SNB-19 CNS) | TGI (SR leukemia) | TGI (SW-620 colon) | TGI (HCT-15 colon) | TGI (UACC-62 melanoma) | TGI (EKVX NSCLC) | TGI (HCC-2998 colon) | TGI (SNB-75 CNS) | TGI (A549 NSCLC) | TGI (K-562 leukemia) | TGI (SN12C renal) | TGI (IGROV1 ovarian) | TGI (786-0 renal) | TGI (MOLT-4 leukemia) | TGI (SK-MEL-2 melanoma) | TGI (UACC-257 melanoma) | TGI (UO-31 renal) | TGI (NCI-H460 lung)
513 nM: TGI (NCI-H522 lung)
1080 nM: TGI (OVCAR-3 ovarian)
2250 nM: TGI (M14 melanoma)
3840 nM: TGI (BT-549 breast)
> 6780 nM: TGI (RPMI-8226 leukemia)
> 9880 nM: TGI (DU-145 prostate)
10200 nM: TGI (A498 renal)
1010 nM: TGI (SF-539 CNS)
625 nM: TGI (MDA-MB-435)
383 nM: TGI (HL-60(TB) leukemia)
inactive: GI50 (PC-3 prostate) 582 nM | GI50 (CAKI-1 renal) > 10800 nM | GI50 (MDA-MB-231 breast) 435 nM | GI50 (SF-295 CNS) 494 nM | GI50 (NCI-H226 lung) > 9710 nM | GI50 (U251 CNS) 434 nM | GI50 (HS 578T breast) 468 nM | GI50 (TK-10 renal) 1110 nM | GI50 (SF-268 CNS) 677 nM | GI50 (SK-OV-3 ovarian) 703 nM | GI50 (HOP-62 NSCLC) 618 nM | GI50 (NCI/ADR-RES ovarian) > 14300 nM | GI50 (DU-145 prostate) 469 nM | GI50 (NCI-H23 lung) 884 nM | GI50 (HOP-92 NSCLC) > 14300 nM | GI50 (OVCAR-8 ovarian) 614 nM | GI50 (T-47D breast) > 14300 nM | GI50 (SK-MEL-28 melanoma) > 3700 nM | GI50 (ACHN renal) 2530 nM | GI50 (OVCAR-4 ovarian) 1380 nM | GI50 (OVCAR-5 ovarian) 3970 nM | GI50 (KM12 colon) 471 nM | GI50 (A498 renal) 503 nM | GI50 (SNB-19 CNS) 578 nM | GI50 (HCT-15 colon) 2410 nM | GI50 (EKVX NSCLC) 2810 nM | GI50 (A549 NSCLC) 2820 nM | GI50 (SN12C renal) 799 nM | GI50 (IGROV1 ovarian) 593 nM | GI50 (786-0 renal) 902 nM | GI50 (MOLT-4 leukemia) 588 nM | GI50 (UACC-257 melanoma) 563 nM | GI50 (UO-31 renal) 8550 nM
2470 nM: TGI (HT29 colon)
2980 nM: TGI (SK-MEL-5 melanoma)
